Where two headings read alike, the source gives them in different places.
Tested on: panel of cell lines and tumor explants
Experiment: Soft agar (clonogenic) assay on cell lines and tumor explants
Type: cell-based, human
Design: key to Differential: panel average log(GI50) minus sample log(GI50); positive = more sensitive
Details: for GI50: Homo sapiens; for Differential: average log(GI50) 0.236 minus log(GI50)
Experimental: Compound IIa was tested against a panel of cell lines and tumor explants in a soft agar assay as described in Fiebig, H. H., Maier, A., and Burger, A. M. (Clonogenic assay with established human tumour xenorafts: correlation of in vitro to in vivo activity as a basis for anticancer drug discovery, Eur. J. Cancer 40, 802-820 (2004).) Table 16 lists the type of cancer, the name of the sample, its GI50 (concentration needed to achieve 50% growth inhibition) value in the assay, the logarithm of the GI50 (log(GI50), and the relative sensitivity of each sample (Differential). The differential is calculated by subtracting the log(GI50) for each cell line from the average log(GI50) across the entire panel (0.236 in this case); a positive value indicates a sample that is more sensitive than average, whereas a negative value indicates a sample that is less sensitive than average.

SMILES: CC(C)(C)[C@H](c1nc(-c2cc(F)ccc2F)cn1Cc1ccccc1)N(CC[C@H](N)CF)C(=O)CO [Compound IIa]
- GI50 (Sarcoma, sample 117, GI50 in nM, read-out: log(GI50) (converted)): 0.249 nM
- GI50 (Sarcoma, sample 117, read-out: GI50): 0.249 nM
- GI50 (Sarcoma, sample 417, GI50 in nM, read-out: log(GI50) (converted)): 0.16 nM
- GI50 (Sarcoma, sample 417, read-out: GI50): 0.16 nM
- GI50 (Sarcoma, sample 463, GI50 in nM, read-out: log(GI50) (converted)): 19.1 nM
- GI50 (Sarcoma, sample 463, read-out: GI50): 19.1 nM
- GI50 (Sarcoma, sample 627, GI50 in nM, read-out: log(GI50) (converted)): ≥ 10 nM
- GI50 (Sarcoma, sample 627, read-out: GI50): 10 nM
- GI50 (Sarcoma, sample 1186, GI50 in nM, read-out: log(GI50) (converted)): 0.327 nM
- GI50 (Sarcoma, sample 1186, read-out: GI50): 0.327 nM
- GI50 (Sarcoma, sample 1301, GI50 in nM, read-out: log(GI50) (converted)): 0.235 nM
- GI50 (Sarcoma, sample 1301, read-out: GI50): 0.235 nM
- GI50 (Sarcoma, sample 1410, GI50 in nM, read-out: log(GI50) (converted)): 2.24 nM
- GI50 (Sarcoma, sample 1410, read-out: GI50): 2.25 nM
- GI50 (U-937, Lymphoma (NHL), sample U937, GI50 in nM, read-out: log(GI50) (converted)): 0.0859 nM
- GI50 (U-937, Lymphoma (NHL), sample U937, read-out: GI50): 0.086 nM
- Differential (Leukemia (ALL), sample CCRFCEM): 0.779
- Differential (Leukemia (ALL), sample JURKAT): 1.211
- Differential (Leukemia (ALL), sample MOLT4): 0.293
- Differential (Leukemia (CML), sample K562): 0.805
- Differential (Lymphoma (NHL), sample U937): 1.302
- log(GI50) (Mean across the entire panel, GI50 in nM): 0.236
- Differential (Melanoma, sample 462): −0.764
- Differential (Melanoma, sample 989): −0.868
- Differential (Melanoma, sample 1341): −0.764
- Differential (NSCLC, sample 211): 0.902
- Differential (NSCLC, sample 289): −0.454
- Differential (NSCLC, sample 526): 0.134
- Differential (NSCLC, sample 629): −0.764
- Differential (NSCLC, sample 677): 0.171
- Differential (NSCLC, sample 737): −0.250
- Differential (NSCLC, sample 1012): 0.270
- Differential (NSCLC, sample 1176): −0.241
- Differential (NSCLC, sample 1422): 0.374
- Differential (NSCLC, sample 1647): −0.988
- Differential (Ovarian, sample 899): −0.764
- Differential (Ovarian, sample 1353): −0.764
- Differential (Pancreas, sample 546): −0.177
- Differential (Pancreas, sample 736): 0.134
- Differential (Pancreas, sample 1657): −1.194
- Differential (Pancreas, sample 1861): 0.442
- Differential (Pancreas, sample 1869): −0.800
- Differential (Pancreas, sample 1872): 0.786
- Differential (Pancreas, sample 1876): 0.709
- Differential (Pancreas, sample 1881): −0.128
- Differential (Pancreas, sample 1887): −0.764
- Differential (Pancreas, sample 1900): −0.992
- Differential (Pancreas, sample 1912): 1.187
- Differential (Pancreas, sample 1937): 0.969
- Differential (Prostate, sample 22RV1): 0.506
- Differential (Prostate, sample DU145): 0.236
- Differential (Prostate, sample MRIH1579): −0.764
- Differential (Prostate, sample PC3M): 0.609
- Differential (SCLC, sample 538): 0.706
- Differential (SCLC, sample 573): 0.468
- Differential (SCLC, sample 615): 1.323
- Differential (SCLC, sample 650): 0.661
- Differential (SCLC, sample H69): 0.807
- Differential (Sarcoma, sample 117): 0.840
- Differential (Sarcoma, sample 417): 1.032
- Differential (Sarcoma, sample 463): −1.045
- Differential (Sarcoma, sample 627): −0.764
- Differential (Sarcoma, sample 1186): 0.722
- Differential (Sarcoma, sample 1301): 0.865
- Differential (Sarcoma, sample 1410): −0.115
- sensitive samples / samples (bladder): 4/6
- sensitive samples / samples (breast): 7/10
- sensitive samples / samples (hematological cancers (leukemia and lymphoma)): 5/5
- sensitive samples / samples (sarcomas): 4/7
- sensitive samples / samples (small cell lung cancer (SCLC)): 5/5
- average log(GI50) across the entire panel (soft agar assay panel): 0.236

Source: patent publication US8252832B2, “Kinesin inhibitors as cancer therapeutics” (Novartis AG, priority 2007, dated 2012)
